How the values were obtained:
Type in all cases: physicochemical
[1] = Antioxidant activity assessed as protection against Cu2+/GSH-induced DNA oxidation at 150 uM up to 180 mins by TBARS method; details: 3 h
[2] = Antioxidant activity assessed as inhibition time period for protection against AAPH-induced DNA oxidation at 37 degC by TBARS method
[3] = Antioxidant activity assessed as OH-induced DNA oxidation at 150 uM by TBARS method

inhibition (INH) [1]	Time [2] [min]	Activity [3] [%]	Structure (SMILES)
Active		82.6	O=C(O)c1cc2ccccc2oc1=O [COUMARIN-3-CARBOXYLIC ACID]
Active		72.9	O=C(NCCc1ccccc1)c1cc2ccccc2oc1=O
Active	0.82	78.8	O=C(O)c1cc2ccc(O)cc2oc1=O

More lines, now with the values behind:

Structure (SMILES)	inhibition (INH) [1]	Time [2] [min]	Activity [3] [%]
COc1cc2cc(C(=O)NCCc3ccc(O)cc3)c(=O)oc2cc1O	Not Active	7.43	68.1
COc1cc2cc(C(=O)O)c(=O)oc2cc1O	Active	2.92	86.5
O=C(NCCc1ccc(O)cc1)c1cc2ccccc2oc1=O	Not Active	1.28	76.4
O=C(NCCc1ccccc1)c1cc2ccc(O)cc2oc1=O	Not Active		75.3
COc1cc2cc(C(=O)NCCc3ccccc3)c(=O)oc2cc1O	Not Active	1.61	73.6
O=C(NCCc1ccc(O)cc1)c1cc2ccc(O)cc2oc1=O	Not Active		71.5

Reference: ChEMBL document CHEMBL3352361, “Design and synthesis of coumarin-3-acylamino derivatives to scavenge radicals and to protect DNA” (Eur J Med Chem, 2014)
